Measured values reported in patent US8362031B2, “Lonidamine analogues and treatment of polycystic kidney disease” (University of Kansas, priority 2004, dated 2013).
Entries after “also recorded” stand apart in the source; their conditions may differ.

Columns and labels:
ADPKD cells [1] = experiment: Mitotic index of ADPKD cells; assay type: cell-based, human; details: untreated controls 4.1%
Protocol: For the […] shown in FIG. 10C, 5×10^3 ADPKD cells were plated in a 4-well chamber slide. After 24 hours, medium was changed to include 5% FBS. Cells were treated with increasing concentrations of GMZ for 16 hours, fixed with 4% paraformaldehyde and permeabilized with 0.2% Triton-X100. Cells were mounted with DAPI-containing mounting medium and observed by fluorescence microscopy. Eight to ten separate fields were examined at 10× magnification and the number of mitotic figures (nuclei) were counted and expressed as a percentage of the total number of nuclei per field. Statistical analysis was done to compare the GMZ-treated cells to untreated cells at each time point using One-way ANOVA and the Tukey HSD test for pair-wise comparisons.

[2] = tested on: CFTR-mediated chloride transport; experiment: Forskolin-induced short-circuit current in ADPKD cell monolayers; assay type: cell-based, human
Protocol: To determine if the ability of GMZ to inhibit cAMP-stimulated tubule expansion was due to inhibition of CFTR-mediated chloride transport, forskolin-induced short-circuit current was measured with cyst-lining epithelial cells derived from two human ADPKD (autosomal dominant PKD) kidneys. FSK is an adenylyl cyclase agonist, which increases the levels of intracellular cAMP. The cAMP then opens the CFTR chloride channel. […] The bars in FIG. 12G show the results for the three treatments. 1 microM gamendazole applied to the apical side of the cell monolayer was effective in inhibiting greater than 40 percent of the forskolin-stimulated transepithelial chloride transport.

ADPKD cells [3] = experiment: Wound-healing scratch assay (cell migration); assay type: cell-based, human
Protocol: Gamendazole (GMZ) was tested to determine if it inhibits cell migration. Briefly, ADPKD cells were plated on a 12-well cell culture plate in 5% FBS-containing medium and allowed to form a confluent monolayer. The monolayer was wounded using a P-200 pipette tip and the medium changed to include increasing concentrations of gamendazole. Images of three different fields per well were captured at 10× magnification immediately after wounding and at 4, 8 and 24 hours post-wounding. GMZ was tested at 0, 10, 50, and 100 uM. Area of the wound was measured at each time point using NIH Image J program. Percentage of wound closure was calculated by subtracting the area of the wound at any given time point from the 0 h wound area expressed as a percentage of the 0 h wound area. Statistical analysis was done to compare the GMZ-treated cells to untreated cells at each time point using One-way ANOVA and the Tukey HSD test for pair-wise comparisons.

[4] = tested on: E15.5 kidneys from Pkd1+/+, +/−, and −/− mice; experiment: Metanephric organ culture, cAMP-driven cyst formation; assay type: cell-based, mouse
Protocol: To determine whether gamendazole alters the cyst-forming process in response to cAMP, kidneys from Pkd1+/+, +/−, and −/− mice were placed in metanephric culture at E15.5 and treated with 100 uM 8-Br-cAMP with or without gamendazole (100 nM-10 uM) for 4 days.
The length of time that Gamendazole was able to block fluid secretion in embryonic kidneys using a washout technique was studied. Briefly, E15.5 kidneys were treated with cAMP alone or with cAMP plus 5 microM Gamendazole. 24 hrs later, culture medium was removed from the GMZ+cAMP-treated kidneys and was replaced with fresh medium containing cAMP only. […] This was evident by the reduced number and size of the tubule dilations on Day 4.

Cdk4 = experiment: Western blot of treated ADPKD cells; assay type: cell-based, human; details: 50 uM
Protocol: (§1) Gamendazole (GMZ) was tested to determine if treatment decreases Hsp90 client protein levels in ADPKD cells. Briefly, ADPKD cells were treated with 50 μM GMZ for 24, 48 or 72 hours. Proteins from 20 μg total cell lysate were separated by SDS-PAGE, transferred to a PVDF membrane and probed with antibodies against the Hsp90 client proteins ErbB2 (185 kD), and cdk4 (34 kD).

ErbB2 = experiment: Western blot of treated ADPKD cells; assay type: cell-based, human; details: 50 uM
Protocol: as §1

HSP90 = target: T1, HSP90 (Mus musculus, UniProt P11499); experiment: Affinity chromatography of cell lysate with biotinylated RC-MC-110, drug specific elution; assay type: binding; details: TM4 sertoli cell (mouse) and ID8 cell lysates, avidin-sepharose column
T1 construct: Wash four 150 mm plates of TM4 cells (sertoli cells) or ID-8 cells (ovarian cancer) once with PBS; endogenous in cells; host or cells: TM4 Sertoli cells (mouse) and ID8 ovarian cancer cells, cell lysate
Protocol: To analyze the binding of the compounds of the present invention, the following procedure is used.
2. Wash four 150 mm plates of TM4 cells (sertoli cells) or ID-8 cells (ovarian cancer) once with PBS (20 mM concentration pH 7.5). Add enough volume to trypsinize cells. Aspirate and spin cells for 10 minutes at 4° C. at 250×g. Add enough Lysis buffer to the cells.
5. Remove the cell lysate and apply the sample into a 2 ml avidin-sepharose (tetramer form) column (pre-equilibrated with 50 mM Tris-HCl/0.001% NP-40, pH 7.4) to remove native biotinylated compounds.
6. Take 2.7 ml of pre-cleared cell lysate and incubate the sample with RC-MC-110.
Tube 1: 2.7 ml of pre-cleared lysate plus 150 μl of 1.2 mg/ml biotinylated RC-MC-110+150 μl of DMSO (maintaining the same amount of DMSO in both tubes).
Tube 2: 2.7 ml of pre-cleared lysate plus 150 μl of 1.2 mg/ml of biotinylated RC-MC-110 (RC-MC-150, see structure below), and add 150 μl of 12 mg/ml RC-MC-110 stock. Incubate the sample overnight at […] on a rocking platform (or gentle stirring) with gentle agitation.
7. Load samples on an avidin-sepharose column pre-equilibrated with buffer (50 mM Tris-HCl pH 7.4, 0.1% NP-40=TD buffer). Wash column until background is reached.
8. Wash column with 2.5 ml of 0.6 mg/ml of RC-MC-110 in TD buffer (stock 12 mg/ml) until peak elutes (if any) and stable background. Pool fractions.

[5] = tested on: ID8 cells (ovarian cancer); experiment: ID8 cell growth in vitro; assay type: cell-based
Protocol: When RC-MC-110 is added to a variety of cancer cells: ovarian (ID8), taxol-resistant ovarian (ID8), prostate (LNCaP and PC-3), kidney (293).

[6] = 100 nM-10 uM for 4 days with 100 uM 8-Br-cAMP

T1 sequence (P11499 whole entry): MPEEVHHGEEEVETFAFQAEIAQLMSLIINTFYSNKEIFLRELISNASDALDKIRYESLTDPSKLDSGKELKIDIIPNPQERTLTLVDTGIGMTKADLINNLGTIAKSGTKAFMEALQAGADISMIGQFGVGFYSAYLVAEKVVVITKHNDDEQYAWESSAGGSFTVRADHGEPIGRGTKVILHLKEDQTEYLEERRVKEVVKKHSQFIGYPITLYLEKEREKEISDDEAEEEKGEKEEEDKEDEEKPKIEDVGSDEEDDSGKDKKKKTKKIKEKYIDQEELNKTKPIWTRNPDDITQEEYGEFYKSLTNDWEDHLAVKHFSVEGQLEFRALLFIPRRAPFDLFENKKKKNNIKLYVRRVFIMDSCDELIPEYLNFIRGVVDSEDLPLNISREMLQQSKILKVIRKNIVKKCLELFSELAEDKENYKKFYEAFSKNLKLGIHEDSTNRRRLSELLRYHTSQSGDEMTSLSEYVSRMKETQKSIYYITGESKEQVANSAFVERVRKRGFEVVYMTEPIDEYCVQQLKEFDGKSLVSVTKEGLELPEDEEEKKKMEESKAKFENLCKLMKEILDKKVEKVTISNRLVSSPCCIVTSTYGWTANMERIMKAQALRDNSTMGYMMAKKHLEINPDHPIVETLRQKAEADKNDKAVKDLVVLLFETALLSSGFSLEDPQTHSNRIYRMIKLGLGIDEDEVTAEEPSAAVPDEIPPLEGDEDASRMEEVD

| SMILES | mitotic index (ADPKD cells [1]; 50 μM for 16 h) | mitotic index (ADPKD cells [1]; 100 μM for 16 h, p<0.01) | inhibition at 1 µM ([2]; Homo sapiens, 1 microM applied to the apical side, 10 microM forskolin, read-out: inhibition of the forskolin-stimulated transepithelial chloride transport) | forskolin-induced Cl-secretion (short-circuit current) ([2]; human ADPKD cells, in the presence of benzamil) | Concentration needed to inhibit CFTR-mediated chloride channel activity, compared with lonidamine ([2]; human cyst epithelial cells (ADPKD cells)) | cell migration (percentage of wound closure) (ADPKD cells [3]; 10, 50 and 100 uM, 4, 8 and 24 hours post-wounding) | wound closure (ADPKD cells [3]; even at low concentration (10 uM)) | Toxicity to the kidneys in metanephric culture [4, 6] | cystic dilation [4, 6] | cyst formation in Pkd1+/− kidneys ([4]; 1-2 uM) | cyst reduction in Pkd1−/− kidneys ([4]; 5-10 uM, data not shown) | cAMP-mediated cyst formation in heterozygous and null metanephric kidneys ([4]; 5 microM) | cystic index, three Pkd1 genotypes ([4]; 5 microM) | Persistence of inhibition after washout ([4]; 5 microM for 24 hrs, then cAMP only, read on Day 4) | Size of kidneys in organ culture ([4]; compared to untreated counterparts) | levels of the Hsp90 client protein Cdk4 (Cdk4) | levels of the Hsp90 client protein ErbB2 (ErbB2) | Binding of HSP90 (HSP90) | Sensitivity of ID8 cell growth, compared with lonidamine [5] |
| --- | --- | --- | --- | --- | --- | --- | --- | --- | --- | --- | --- | --- | --- | --- | --- | --- | --- | --- | --- |
| O=C(O)CCc1nn(Cc2ccc(Cl)cc2Cl)c2cc(C(F)(F)F)ccc12 [GMZ, 3-[1-(2,4-dichlorobenzyl)-6-trifluoromethyl-1H-indazol-3-yl]-propionic acid] | 2.6% | 1.7% | > 40% | almost completely block | at much lower concentration; also recorded: effective at lower doses than was Lonidamine itself | significant inhibition of cell migration at all concentrations of GMZ tested and at all time points | unable to accomplish wound closure | did not appear to be toxic to the kidneys | significantly inhibited cystic dilation | essentially preventing cyst formation | dramatic cyst reduction | significantly inhibited cAMP-mediated cyst formation | dramatic decrease in cystic index | the inhibitory effects appeared to persist in culture | somewhat reduced in size | decreased levels | decreased levels | – | – |
| O=C(O)/C=C/c1nn(Cc2ccc(Cl)cc2Cl)c2cc(C(F)(F)F)ccc12 [RC-MC-110, trans 3-[1-(2,4-dichlorobenzyl)-6-trifluoromethyl-1H-indazol-3-yl]-acrylic acid] | – | – | – | – | – | – | – | – | – | – | – | – | – | – | – | – | – | bind heat shock 90 proteins; also recorded: drug specific elution of Hsp90 | more sensitive to RC-MC-110 than lonidamine |
